# What was measured:
# [1] = system: CD45 expression (leukocytes) in the heart; experiment: Inflammatory infiltrate: CD45 expression in the heart by Western blot (Example 4); assay type: in vivo, mouse; conditions: 72 hours after AMI; 4 mg/kg i.p. twice daily
# Procedure: Adult out-bred male CD1 mice (8-12 weeks of age) were supplied by Harlan Sprague Dawley (Indianapolis, Ind.). The experiments were conducted under the guidelines of laboratory animals for biomedical research published by National Institutes of Health (No. 85-23, revised 1996). The study protocol was approved by the Virginia Commonwealth University Institutional Animal Care and Use Committee. Experimental AMI was induced by permanent coronary artery ligation in order to induce a large non-reperfused infarct involving approximately 30% of the left ventricle and leading to an ischemic dilated cardiomyopathy (Mezzaroma et al. Proc Natl Acad Sci 2011—in press and Abbate et al. Circulation 2008; 117:2670-83). Briefly, mice were orotracheally intubated under anesthesia (pentobarbital 50 to 70 mg/kg), placed in the right lateral decubitus position, then subjected to a left thoracotomy, pericardiectomy, and ligation of the proximal left coronary artery. The chest was closed and the animals were allowed to recover. […]
# In order to quantify the inflammatory infiltrate in the heart during AMI, this example measured CD45 expression (a marker for leukocytes) in the heart using Western Blot. […] The band intensity was determined by densitometric analysis using the Scion Image software and the results were expressed as percentage increase in intensity compared to the control sham samples.
# [2] = system: CD1 mice with experimental AMI (permanent coronary artery ligation); experiment: Circulating levels of cytokines and soluble adhesion molecules at day 28 (Luminex, Example 4); assay type: in vivo, mouse; conditions: day 28 after surgery, vs vehicle
# Procedure: Adult out-bred male CD1 mice (8-12 weeks of age) were supplied by Harlan Sprague Dawley (Indianapolis, Ind.). The experiments were conducted under the guidelines of laboratory animals for biomedical research published by National Institutes of Health (No. 85-23, revised 1996). The study protocol was approved by the Virginia Commonwealth University Institutional Animal Care and Use Committee. Experimental AMI was induced by permanent coronary artery ligation in order to induce a large non-reperfused infarct involving approximately 30% of the left ventricle and leading to an ischemic dilated cardiomyopathy (Mezzaroma et al. Proc Natl Acad Sci 2011—in press and Abbate et al. Circulation 2008; 117:2670-83). Briefly, mice were orotracheally intubated under anesthesia (pentobarbital 50 to 70 mg/kg), placed in the right lateral decubitus position, then subjected to a left thoracotomy, pericardiectomy, and ligation of the proximal left coronary artery. The chest was closed and the animals were allowed to recover. The mice surviving surgery were randomly assigned to the different groups of treatment (N=6-15 per group). Sham operations were performed wherein animals underwent the same surgical procedure without coronary artery ligation (N=4-8 per group).
# The A2B AdoR antagonist, Compound A, was obtained from Gilead Sciences, Foster City, Calif. Mice were randomly assigned to treatment with Compound A (4 mg/kg) or matching dose of vehicle administered intraperitoneally (final volume 0.13 mL) every 12 hours for 14 days starting immediately after coronary artery ligation surgery. An additional group of mice received a lower dose of Compound A (2 mg/kg) to explore a dose-response relationship. Two additional groups of mice received Compound A (4 mg/kg) starting 1 hour after surgery to simulate a clinical scenario of treatment delay. […] To simulate a clinically relevant scenario in which drug treatment may occur with some delay after AMI, this example compared treatment with Compound A without delay with groups in which the A2B AdoR antagonist was given with 1 hour of delay.
# The plasma concentrations of IL-1β and […], Tumor Necrosis Factor-α (TNF-α) and soluble adhesion molecules (E-selectin, Intercellular adhesion molecule-1 [ICAM-1] and vascular cellular adhesion molecule [VCAM]), that are induced by IL-1β, were determined at day 28 after surgery using Luminex kits obtained from Millipore (Billerica, Mass.) according to the manufacturer's instructions. A blood sample was obtained via a direct cardiac puncture immediately prior to killing the animals.
# [3] = system: rats with MI (25 minutes coronary occlusion followed by reperfusion); experiment: Histology of fibrosis in the infarct border zone, rat post-MI model (Example 6); assay type: in vivo; conditions: 5 week post-MI; Sirius red; vs vehicle control
# Procedure: (§1) The effects of Compound A in a rat model of post-MI remodeling and VT were determined. MI was caused by 25 minutes occlusion at the left anterior descending coronary ligation followed by reperfusion. One week later, rats were administered either vehicle or Compound A (100 mg/kg) once daily by oral gavage. Serial echocardiograms (ECHOs) to measure LV ejection fraction (LVEF), stroke volume and LV end systolic volume (LVESV) were obtained at baseline, 1 week and 5 week post-MI. Electrophysiological studies, optical mapping, histology and biomarker analysis were conducted at 5 week post-MI.
# Abnormal conduction in the IBZ is due to tissue remodeling. Excessive fibrosis in the IBZ is an important substrate for VT vulnerability.
# [4] = system: rats with MI (25 minutes coronary occlusion followed by reperfusion); experiment: Plasma biomarkers at 5 week post-MI, rat post-MI model (Example 6); assay type: in vivo
# Procedure: as §1
smiles,measurement,setting,value
"CCCn1c(=O)c2[nH]c(-c3cnn(Cc4cccc(C(F)(F)F)c4)c3)nc2n(CC)c1=O [Compound A, 3-ethyl-1-propyl-8-(1-(3-(trifluoromethyl)benzyl)-1H-pyrazol-4-yl)-1H-purine-2,6(3H,7H)-dione]","intensity of the leukocyte (CD45+) infiltrate, CD45 expression at Western blot",[1],significantly reduced
same,E-selectin plasma level,[2],significantly reduced
same,ICAM-1 plasma level,[2],significantly reduced
same,IL-6 plasma level,[2],significantly reduced
same,TNF-α plasma level,[2],significantly reduced
same,VCAM plasma level,[2],significantly reduced
same,fibrosis in the IBZ,[3],inhibited
same,plasma IL-6,[4],significantly reduced
same,plasma PAI-1,[4],significantly reduced
same,increase of plasma BNP,[4]; P=0.16,trend
